In ChEMBL document CHEMBL1641539 (Bioorg Med Chem Lett, 2011) one finds residual activity and inhibition data, which are given here for one compound.

In assay [1] the target is Interleukin-1 receptor-associated kinase 1 (Homo sapiens) (UniProt P51617). Nature of the assay: Inhibition of human IRAK1 at 10 uM after 60 mins by TR-FRET assay. As to conditions: values are per cent of control.
The target of assay [2] is Interleukin-1 receptor-associated kinase 4 (Homo sapiens) (UniProt Q9NWZ3). Nature of the assay: Inhibition of human IRAK4 at 10 uM after 60 mins by TR-FRET assay. Conditions: values are per cent of control. A general note: In TR-FRET formats the signal depends on donor and acceptor labels being close together.
Chain of Interleukin-1 receptor-associated kinase 4 (Homo sapiens) (Q9NWZ3 whole entry): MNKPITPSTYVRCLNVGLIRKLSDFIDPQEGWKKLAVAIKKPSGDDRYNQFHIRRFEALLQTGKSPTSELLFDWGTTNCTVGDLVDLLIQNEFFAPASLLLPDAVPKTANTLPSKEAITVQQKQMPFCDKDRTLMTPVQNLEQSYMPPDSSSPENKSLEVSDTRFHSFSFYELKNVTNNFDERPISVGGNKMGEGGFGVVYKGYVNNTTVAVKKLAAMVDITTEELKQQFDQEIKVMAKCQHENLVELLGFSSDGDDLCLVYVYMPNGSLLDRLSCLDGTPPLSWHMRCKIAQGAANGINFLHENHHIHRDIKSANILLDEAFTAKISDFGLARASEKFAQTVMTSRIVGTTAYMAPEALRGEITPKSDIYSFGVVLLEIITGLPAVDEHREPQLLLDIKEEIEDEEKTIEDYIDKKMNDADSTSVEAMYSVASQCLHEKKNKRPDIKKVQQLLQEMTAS
Assay [3] concerns the target Mitogen-activated protein kinase 8 (Homo sapiens, UniProt P45983). Description: Inhibition of human JNK1alpha1 at 10 uM after 60 mins by TR-FRET assay. Conditions: values are per cent of control.
Assay [4] deals with Mitogen-activated protein kinase 14 (Homo sapiens), Q16539 [T106M]. Description: Inhibition of human SAPK2a T106M mutant at 10 uM after 60 mins by TR-FRET assay. As to conditions: values are per cent of control.
For assay [5], the target named is Serine/threonine-protein kinase SIK1 (Homo sapiens) (UniProt P57059). Nature of the assay: Inhibition of human SIK at 10 uM after 60 mins by TR-FRET assay. As to conditions: values are per cent of control.
Assay [6] has as its system Epidermal growth factor receptor (Homo sapiens), P00533 [L858R,T790M]. Conditions: 10 uM.
Description: Inhibition of human EGFR T790M, L858R mutant at 10 uM after 60 mins by TR-FRET assay
Assay [7] addresses Focal adhesion kinase 1 (Homo sapiens) (UniProt Q05397). Description: Inhibition of human FAK at 10 uM after 60 mins by TR-FRET assay; values are per cent of control.
The target in assay [8] is Macrophage colony-stimulating factor 1 receptor (Homo sapiens) (UniProt P07333). Nature of the assay: Inhibition of human Fms at 10 uM after 60 mins by TR-FRET assay; values are per cent of control.
The target in assay [9] is Mitogen-activated protein kinase kinase kinase kinase 2 (Homo sapiens) (UniProt Q12851). Nature of the assay: Inhibition of human GCK at 10 uM after 60 mins by TR-FRET assay; values are per cent of control.
For assay [10], the target named is Serine/threonine-protein kinase WNK2 (Homo sapiens) (UniProt Q9Y3S1). Nature of the assay: Inhibition of human WNK2 at 10 uM after 60 mins by TR-FRET assay; values are per cent of control.
For assay [11], the target named is Ephrin type-A receptor 8 (Homo sapiens) (UniProt P29322). Description: Inhibition of human EphA8 at 10 uM after 60 mins by TR-FRET assay; values are per cent of control.
In assay [12] the target is Ephrin type-B receptor 4 (Homo sapiens) (UniProt P54760). Nature of the assay: Inhibition of human EphB4 at 10 uM after 60 mins by TR-FRET assay; values are per cent of control.
Chain of Ephrin type-B receptor 4 (Homo sapiens) (P54760 whole entry, the tested form may be a part): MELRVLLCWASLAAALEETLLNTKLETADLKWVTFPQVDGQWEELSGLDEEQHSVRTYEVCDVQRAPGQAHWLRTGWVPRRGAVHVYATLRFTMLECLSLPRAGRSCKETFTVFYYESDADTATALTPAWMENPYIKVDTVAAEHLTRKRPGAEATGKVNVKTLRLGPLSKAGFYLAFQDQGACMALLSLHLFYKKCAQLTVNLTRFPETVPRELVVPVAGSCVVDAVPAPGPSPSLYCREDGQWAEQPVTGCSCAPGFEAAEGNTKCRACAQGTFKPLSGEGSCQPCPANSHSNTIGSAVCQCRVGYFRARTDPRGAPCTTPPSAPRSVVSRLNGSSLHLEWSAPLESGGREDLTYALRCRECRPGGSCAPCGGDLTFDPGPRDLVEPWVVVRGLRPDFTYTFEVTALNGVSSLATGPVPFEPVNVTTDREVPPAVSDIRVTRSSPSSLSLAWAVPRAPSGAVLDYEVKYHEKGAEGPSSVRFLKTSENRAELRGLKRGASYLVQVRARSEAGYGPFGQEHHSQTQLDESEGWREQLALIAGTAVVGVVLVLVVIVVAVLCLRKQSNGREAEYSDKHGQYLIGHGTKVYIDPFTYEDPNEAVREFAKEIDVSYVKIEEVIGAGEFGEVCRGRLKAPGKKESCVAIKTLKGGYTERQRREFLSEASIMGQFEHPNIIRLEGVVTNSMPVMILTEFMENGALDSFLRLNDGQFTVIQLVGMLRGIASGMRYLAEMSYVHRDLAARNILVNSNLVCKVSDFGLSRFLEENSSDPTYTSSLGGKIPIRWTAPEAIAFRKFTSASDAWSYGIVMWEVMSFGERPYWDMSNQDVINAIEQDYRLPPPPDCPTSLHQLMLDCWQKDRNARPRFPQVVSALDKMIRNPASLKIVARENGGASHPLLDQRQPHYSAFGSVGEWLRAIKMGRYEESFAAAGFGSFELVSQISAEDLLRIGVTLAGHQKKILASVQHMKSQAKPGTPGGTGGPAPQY
Assay [13] deals with LIM domain kinase 1 (Homo sapiens) (UniProt P53667). Description: Inhibition of human LIMK1 at 10 uM after 60 mins by TR-FRET assay; values are per cent of control.
Chain of LIM domain kinase 1 (Homo sapiens) (P53667 whole entry, looked up, the tested form may be a part): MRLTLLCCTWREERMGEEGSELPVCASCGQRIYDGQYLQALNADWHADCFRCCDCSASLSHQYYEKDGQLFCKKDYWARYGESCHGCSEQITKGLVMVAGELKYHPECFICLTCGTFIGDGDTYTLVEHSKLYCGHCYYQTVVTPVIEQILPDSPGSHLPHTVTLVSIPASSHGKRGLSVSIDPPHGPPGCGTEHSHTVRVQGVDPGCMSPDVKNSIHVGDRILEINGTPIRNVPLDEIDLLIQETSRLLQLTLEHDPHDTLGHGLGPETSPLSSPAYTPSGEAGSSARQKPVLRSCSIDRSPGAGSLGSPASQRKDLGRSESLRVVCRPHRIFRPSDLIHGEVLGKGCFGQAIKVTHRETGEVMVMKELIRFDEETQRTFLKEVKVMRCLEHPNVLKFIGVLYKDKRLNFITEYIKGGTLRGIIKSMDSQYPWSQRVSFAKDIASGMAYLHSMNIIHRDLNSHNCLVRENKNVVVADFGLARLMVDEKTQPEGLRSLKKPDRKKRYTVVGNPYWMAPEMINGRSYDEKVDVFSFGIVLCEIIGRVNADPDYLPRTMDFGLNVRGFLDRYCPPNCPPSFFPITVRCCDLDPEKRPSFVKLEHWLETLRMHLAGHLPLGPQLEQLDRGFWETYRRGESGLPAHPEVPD
Assay [14] addresses SRSF protein kinase 3 (Homo sapiens) (UniProt Q9UPE1). Nature of the assay: Inhibition of human MSSK1 at 10 uM after 60 mins by TR-FRET assay; values are per cent of control.
In assay [15] the target is Protein kinase C iota type (Homo sapiens) (UniProt P41743). Description: Inhibition of human PKCiota at 10 uM after 60 mins by TR-FRET assay; values are per cent of control.
For assay [16], the target named is Protein kinase C beta type (Homo sapiens) (UniProt P05771). Nature of the assay: Inhibition of human PKCbeta2 at 10 uM after 60 mins by TR-FRET assay; values are per cent of control.
Chain of Protein kinase C beta type (Homo sapiens) (P05771 2-671 limits assumed): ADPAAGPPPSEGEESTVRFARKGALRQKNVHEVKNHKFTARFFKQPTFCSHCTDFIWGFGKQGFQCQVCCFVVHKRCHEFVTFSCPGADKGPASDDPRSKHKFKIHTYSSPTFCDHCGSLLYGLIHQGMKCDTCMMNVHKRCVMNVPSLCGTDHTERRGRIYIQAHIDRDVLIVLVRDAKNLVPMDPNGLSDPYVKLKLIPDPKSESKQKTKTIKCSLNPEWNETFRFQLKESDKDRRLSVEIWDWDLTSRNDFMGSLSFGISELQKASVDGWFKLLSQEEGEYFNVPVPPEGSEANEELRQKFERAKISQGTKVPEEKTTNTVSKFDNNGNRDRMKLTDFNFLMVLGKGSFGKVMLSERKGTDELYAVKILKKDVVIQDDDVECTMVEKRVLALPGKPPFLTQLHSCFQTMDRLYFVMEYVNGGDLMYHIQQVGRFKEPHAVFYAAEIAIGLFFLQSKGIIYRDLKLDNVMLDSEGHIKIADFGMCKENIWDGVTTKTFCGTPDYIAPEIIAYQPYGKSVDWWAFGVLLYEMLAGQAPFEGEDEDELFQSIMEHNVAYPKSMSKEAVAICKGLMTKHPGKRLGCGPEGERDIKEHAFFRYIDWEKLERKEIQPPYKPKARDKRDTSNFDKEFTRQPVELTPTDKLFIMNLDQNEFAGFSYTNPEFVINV
For assay [17], the target named is Serine/threonine-protein kinase MRCK alpha (Homo sapiens) (UniProt Q5VT25). Nature of the assay: Inhibition of human MRCKalpha at 10 uM after 60 mins by TR-FRET assay; values are per cent of control.
Chain of Serine/threonine-protein kinase MRCK alpha (Homo sapiens) (Q5VT25 whole entry): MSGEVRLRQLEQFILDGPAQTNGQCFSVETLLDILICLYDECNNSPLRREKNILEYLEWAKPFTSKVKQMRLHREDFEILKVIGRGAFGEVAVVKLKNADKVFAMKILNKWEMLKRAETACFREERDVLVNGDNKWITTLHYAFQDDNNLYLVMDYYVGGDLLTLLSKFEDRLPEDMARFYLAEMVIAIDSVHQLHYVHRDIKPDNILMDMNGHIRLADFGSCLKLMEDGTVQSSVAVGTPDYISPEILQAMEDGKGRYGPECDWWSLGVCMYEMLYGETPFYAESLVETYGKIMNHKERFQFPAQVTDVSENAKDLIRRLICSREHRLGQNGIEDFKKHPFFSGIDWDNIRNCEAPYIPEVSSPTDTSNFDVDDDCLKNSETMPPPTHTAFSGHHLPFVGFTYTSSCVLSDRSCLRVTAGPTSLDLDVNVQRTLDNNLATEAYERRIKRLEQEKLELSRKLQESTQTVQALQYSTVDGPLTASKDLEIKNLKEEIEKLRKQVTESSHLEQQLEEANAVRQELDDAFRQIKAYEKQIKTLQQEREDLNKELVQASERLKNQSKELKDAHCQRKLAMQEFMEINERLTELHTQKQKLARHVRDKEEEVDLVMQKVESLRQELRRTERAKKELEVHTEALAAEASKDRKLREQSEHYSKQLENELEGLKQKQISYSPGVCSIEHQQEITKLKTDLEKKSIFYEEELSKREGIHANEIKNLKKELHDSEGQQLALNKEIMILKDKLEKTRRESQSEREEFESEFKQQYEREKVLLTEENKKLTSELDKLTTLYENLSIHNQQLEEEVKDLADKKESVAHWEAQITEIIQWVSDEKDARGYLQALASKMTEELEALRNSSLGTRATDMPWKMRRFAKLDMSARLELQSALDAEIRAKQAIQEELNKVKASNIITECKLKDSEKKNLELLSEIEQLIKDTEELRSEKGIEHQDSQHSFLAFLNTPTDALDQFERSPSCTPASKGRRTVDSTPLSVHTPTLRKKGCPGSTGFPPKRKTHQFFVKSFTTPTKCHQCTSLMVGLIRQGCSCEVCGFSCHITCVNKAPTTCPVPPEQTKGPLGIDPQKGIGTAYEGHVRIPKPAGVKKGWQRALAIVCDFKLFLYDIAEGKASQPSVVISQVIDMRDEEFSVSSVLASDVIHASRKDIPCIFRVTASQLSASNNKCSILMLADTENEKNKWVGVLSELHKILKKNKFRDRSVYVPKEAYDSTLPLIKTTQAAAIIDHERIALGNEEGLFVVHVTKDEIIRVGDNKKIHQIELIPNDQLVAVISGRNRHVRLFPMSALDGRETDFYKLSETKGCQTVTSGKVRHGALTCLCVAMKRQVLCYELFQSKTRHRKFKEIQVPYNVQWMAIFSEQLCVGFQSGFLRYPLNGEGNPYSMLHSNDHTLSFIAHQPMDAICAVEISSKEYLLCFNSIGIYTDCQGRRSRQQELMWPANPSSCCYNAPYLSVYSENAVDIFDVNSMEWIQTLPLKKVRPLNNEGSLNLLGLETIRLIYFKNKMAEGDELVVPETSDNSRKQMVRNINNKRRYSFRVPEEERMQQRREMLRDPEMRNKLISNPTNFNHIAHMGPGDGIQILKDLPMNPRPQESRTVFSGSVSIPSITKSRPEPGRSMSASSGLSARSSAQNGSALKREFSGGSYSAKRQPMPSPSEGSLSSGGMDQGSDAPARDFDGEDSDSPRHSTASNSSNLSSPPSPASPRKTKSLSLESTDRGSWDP
Assay [18] concerns the target Calcium/calmodulin-dependent protein kinase type II subunit beta (Homo sapiens) (UniProt Q13554). Nature of the assay: Inhibition of human CaMK2beta at 10 uM after 60 mins by TR-FRET assay; values are per cent of control.
For assay [19], the target named is cGMP-dependent protein kinase 1 (Homo sapiens) (UniProt Q13976). Nature of the assay: Inhibition of human PKG1alpha at 10 uM after 60 mins by TR-FRET assay; values are per cent of control.
Assay [20] concerns the target Calcium/calmodulin-dependent protein kinase type II subunit delta (Homo sapiens) (UniProt Q13557). Description: Inhibition of human CaMK2delta at 10 uM after 60 mins by TR-FRET assay; values are per cent of control.
The target of assay [21] is CDK3/cyclin E (Homo sapiens) (UniProt P24864+O96020+Q00526). Description: Inhibition of human CDK3/cyclinE at 10 uM after 60 mins by TR-FRET assay; values are per cent of control.
The test system of assay [22] is Tyrosine-protein kinase ABL1 (Homo sapiens), P00519 [T315I]. Description: Inhibition of human Abl T315I mutant at 10 uM after 60 mins by TR-FRET assay; values are per cent of control.
Assay [23] deals with Serine/threonine-protein kinase Chk2 (Homo sapiens), O96017 [R145W]. Description: Inhibition of human CHK2 R145W mutant at 10 uM after 60 mins by TR-FRET assay; values are per cent of control.

Chain of Calcium/calmodulin-dependent protein kinase type II subunit delta (Homo sapiens) (Q13557 whole entry): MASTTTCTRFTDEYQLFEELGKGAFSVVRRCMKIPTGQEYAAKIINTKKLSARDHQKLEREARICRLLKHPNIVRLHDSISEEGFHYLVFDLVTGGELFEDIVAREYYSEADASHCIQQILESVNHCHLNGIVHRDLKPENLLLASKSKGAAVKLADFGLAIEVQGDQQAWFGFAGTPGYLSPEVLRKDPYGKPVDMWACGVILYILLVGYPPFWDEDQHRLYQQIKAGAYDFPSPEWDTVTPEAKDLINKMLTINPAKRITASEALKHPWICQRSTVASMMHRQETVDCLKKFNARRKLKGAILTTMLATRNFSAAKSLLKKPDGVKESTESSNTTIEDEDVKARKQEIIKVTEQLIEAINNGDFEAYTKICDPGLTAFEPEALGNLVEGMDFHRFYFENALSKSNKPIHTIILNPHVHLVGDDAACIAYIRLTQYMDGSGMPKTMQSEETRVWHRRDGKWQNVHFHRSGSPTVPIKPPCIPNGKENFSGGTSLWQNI

As a reminder, the inhibition is the relative decrease from the control value, in per cent. High values mean strong suppression, low ones little suppression. Take `S=c1[nH]nc(-c2ccncc2)n1-c1ccc2ccccc2c1`: the residual activity was determined as 113% in assay [1]; 114% in assay [2]; 110% in [3]; 104% in assay [4]; 117% in assay [5]; 106% in assay [7]. The residual activity in assay [8] is 96%; in assay [9], 103%; in assay [10], 108%; in assay [11], 99%; in assay [12], 108%; in assay [13] it was 101%. For the same compound, the residual activity in assay [14] is 121%; in assay [15], 98%; in assay [16] it was 105%; in assay [17], 105%; in assay [18] it was 113%; in assay [19] it was 108%. The residual activity in [20] was 106%; in assay [21], 94%; in assay [22], 110%; in assay [23], 108%. This compound gave an inhibition in [6] of 88%.
